Key:
Assay in all cases: relative viability (nuclei count vs DMSO), 5 days (fraction); higher = more cells survive
[1] = compound: Cn1c(=O)n(-c2ccc(C(C)(C)C#N)cc2)c2c3cc(-c4cnc5ccccc5c4)ccc3ncc21 [Dactolisib] + Cc1nc(NC(=O)N2CCC[C@H]2C(N)=O)sc1-c1ccnc(C(C)(C)C(F)(F)F)c1 [Alpelisib] (partner 2 µM)
Method in brief: (§1)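 Lung cancer cell lines were pin-tool dosed in 1536-well plates on the day after seeding, with either a lone drug or a fixed anchor-drug dose plus five library-drug doses (not always all listed) in √10 steps. Nuclei were counted on 4× images after 5 days. Relative viability is the ratio of treated-well to vehicle-well nuclei counts, with each value a median of duplicate plates.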

[2] = compound: C1CCC(CC1)N(CCNCCC2=C3C(=C(C=C2)O)NC(=O)CO3)C(=O)CCNCCC4=CC(=C(C=C4)Cl)Cl [AZ505] + Nc1ncn([C@H]2C[C@H](O)[C@@H](CO)O2)c(=O)n1 [Decitabine] (partner 2 µM)
Method in brief: as §1

[3] = compound: Cn1c(=O)n(-c2ccc(C(C)(C)C#N)cc2)c2c3cc(-c4cnc5ccccc5c4)ccc3ncc21 [Dactolisib] + CS(=O)(=O)CCNCc1ccc(-c2ccc3ncnc(Nc4ccc(OCc5cccc(F)c5)c(Cl)c4)c3c2)o1 [Lapatinib] (partner 2 µM)
Method in brief: as §1

[4] = compound: C1CCC(CC1)N(CCNCCC2=C3C(=C(C=C2)O)NC(=O)CO3)C(=O)CCNCCC4=CC(=C(C=C4)Cl)Cl [AZ505] + O=C(CCCCCCC(=O)Nc1ccccc1)NO [Vorinostat] (partner 1 µM)
Method in brief: as §1

Row | Cell Line | relative viability ([1]; first compound 0.002 µM) | relative viability ([1]; first compound 0.006325 µM) | relative viability ([1]; first compound 0.02 µM) | relative viability ([1]; first compound 0.06325 µM) | relative viability ([1]; first compound 0.2 µM) | relative viability ([2]; first compound 0.08 µM) | relative viability ([2]; first compound 0.253 µM) | relative viability ([2]; first compound 0.8 µM) | relative viability ([2]; first compound 2.53 µM) | relative viability ([2]; first compound 8 µM) | relative viability ([3]; first compound 0.002 µM) | relative viability ([3]; first compound 0.006325 µM) | relative viability ([3]; first compound 0.02 µM) | relative viability ([3]; first compound 0.06325 µM) | relative viability ([3]; first compound 0.2 µM) | relative viability ([4]; first compound 0.08 µM) | relative viability ([4]; first compound 0.253 µM) | relative viability ([4]; first compound 0.8 µM) | relative viability ([4]; first compound 2.53 µM) | relative viability ([4]; first compound 8 µM)
1 | NCI-H1651 | 1.11 | 0.79 | 0.69 | 0.461 | 0.422 | 0.55 | 0.576 | 0.672 | 0.727 | 0.598 | 0.84 | 0.788 | 0.643 | 0.35 | 0.303 | 0.443 | 0.606 | 0.585 | 0.607 | 0.568
2 | NCI-H1666 | 1.08 | 0.83 | 0.806 | 0.506 | 0.402 | 0.69 | 0.667 | 0.752 | 0.659 | 0.694 | 0.723 | 0.559 | 0.691 | 0.318 | 0.391 | 1.01 | 1.01 | 0.962 | 1.03 | 1.12
3 | NCI-H1734 | 0.686 | 0.582 | 0.586 | 0.361 | 0.233 | 0.52 | 0.501 | 0.45 | 0.541 | 0.506 | 1.02 | 1 | 0.817 | 0.342 | 0.378 | 0.751 | 0.842 | 0.731 | 0.832 | 0.773
4 | NCI-H1755 | 0.944 | 0.898 | 0.872 | 0.655 | 0.372 | 0.721 | 0.727 | 0.724 | 0.711 | 0.772 | 1.07 | 1.03 | 1.06 | 0.852 | 0.73 | 0.782 | 0.859 | 0.788 | 0.743 | 0.813
5 | NCI-H1793 | 0.588 | 0.4 | 0.241 | 0.21 | 0.157 | 0.588 | 0.506 | 0.454 | 0.544 | 0.549 | 0.631 | 0.409 | 0.325 | 0.195 | 0.242 | 0.637 | 0.653 | 0.641 | 0.898 | 0.806
6 | NCI-H1915 | 1.1 | 1.06 | 1.05 | 0.747 | 0.519 | 0.278 | 0.303 | 0.29 | 0.27 | 0.279 | 0.986 | 0.956 | 0.97 | 0.964 | 0.693 | 0.469 | 0.66 | 0.508 | 0.472 | 0.495
7 | NCI-H1944 | 0.898 | 0.796 | 0.72 | 0.384 | 0.279 | 0.436 | 0.465 | 0.414 | 0.475 | 0.418 | 0.808 | 0.814 | 0.758 | 0.412 | 0.378 | 0.563 | 0.551 | 0.641 | 0.514 | 0.55
8 | NCI-H1975 | 0.612 | 0.549 | 0.396 | 0.238 | 0.201 | 0.345 | 0.355 | 0.407 | 0.322 | 0.403 | 0.796 | 0.767 | 0.643 | 0.327 | 0.284 | 0.632 | 0.61 | 0.625 | 0.592 | 0.666
9 | NCI-H1993 | 0.711 | 0.561 | 0.754 | 0.694 | 0.684 | 0.595 | 0.602 | 0.575 | 0.617 | 0.594 | 0.784 | 0.714 | 0.843 | 0.601 | 0.651 | 0.689 | 0.741 | 0.994 | 0.884 | 0.977
10 | NCI-H2009 | 1.21 | 1.19 | 1.14 | 0.676 | 0.532 | 0.451 | 0.397 | 0.361 | 0.362 | 0.365 | 1.1 | 1.01 | 0.95 | 0.9 | 0.327 | 0.635 | 0.678 | 0.652 | 0.626 | 0.678
11 | NCI-H2023 | 0.54 | 0.56 | 0.553 | 0.147 | 0.153 | 0.196 | 0.242 | 0.228 | 0.255 | 0.26 | 0.282 | 0.615 | 0.597 | 0.127 | 0.137 | 0.57 | 0.631 | 0.63 | 0.588 | 0.835
12 | NCI-H2085 | 1.05 | 0.762 | 0.758 | 0.437 | 0.405 | 0.571 | 0.551 | 0.496 | 0.565 | 0.569 | 0.798 | 0.657 | 0.659 | 0.359 | 0.337 | 0.732 | 0.721 | 0.675 | 0.802 | 0.823
13 | NCI-H2087 | 1.17 | 0.994 | 0.805 | 0.574 | 0.668 | 0.224 | 0.254 | 0.275 | 0.289 | 0.277 | 1.21 | 1.16 | 1.23 | 0.855 | 0.563 | 0.596 | 0.903 | 0.592 | 0.691 | 0.913
14 | NCI-H2126 | 0.751 | 0.702 | 0.639 | 0.518 | 0.425 | 0.589 | 0.6 | 0.547 | 0.563 | 0.59 | 0.826 | 0.799 | 0.745 | 0.641 | 0.476 | 0.724 | 0.682 | 0.751 | 0.696 | 0.757
15 | NCI-H2170 | 0.787 | 0.754 | 0.706 | 0.479 | 0.26 | 0.469 | 0.466 | 0.422 | 0.482 | 0.453 | 0.263 | 0.289 | 0.262 | 0.235 | 0.222 | 0.659 | 0.851 | 0.749 | 0.859 | 0.823
16 | NCI-H2347 | 1.2 | 1.09 | 0.927 | 0.689 | 0.399 | 0.545 | 0.572 | 0.511 | 0.461 | 0.505 | 1.16 | 0.943 | 0.843 | 0.906 | 0.813 | 0.39 | 0.417 | 0.474 | 0.464 | 0.352
17 | NCI-H2405 | 0.683 | 0.647 | 0.646 | 0.359 | 0.273 | 0.605 | – | 0.702 | 0.703 | 0.647 | 1.03 | 1.11 | 1.01 | 0.735 | 0.393 | 0.811 | – | 0.823 | 0.856 | 0.863
18 | NCI-H3122 | 0.792 | 0.729 | 0.652 | 0.486 | 0.36 | 0.417 | 0.414 | 0.418 | 0.454 | 0.431 | 1.07 | 1.02 | 1.03 | 1.08 | 0.795 | 0.807 | 1.02 | 1.03 | 0.992 | 1.01
19 | PC-3 [JPC-3] | 1.15 | 1.02 | 0.977 | 0.78 | 0.641 | 0.849 | – | 0.861 | 0.79 | 0.79 | 0.486 | 0.492 | 0.44 | 0.456 | 0.361 | 0.821 | – | 0.786 | 0.934 | 1.09
20 | PC-14 | 0.946 | 0.932 | 0.887 | 0.407 | 0.252 | 0.2 | 0.261 | 0.272 | 0.192 | 0.258 | 0.33 | 0.347 | 0.318 | 0.186 | 0.141 | 0.527 | 0.79 | 0.659 | 0.688 | 0.761
21 | RERF-LC-KJ | 0.806 | 0.818 | 0.742 | 0.543 | 0.551 | 0.719 | 0.664 | 0.757 | 0.78 | 0.567 | 0.901 | 0.823 | 0.829 | 0.53 | 0.418 | 0.616 | 0.689 | 0.564 | 0.672 | 0.669
22 | SK-LU-1 | 1.03 | 0.94 | 0.779 | 0.363 | 0.276 | 0.518 | 0.568 | 0.565 | 0.406 | 0.604 | 0.857 | 0.782 | 0.728 | 0.509 | 0.27 | 0.488 | 0.463 | 0.513 | 0.548 | 0.588
23 | SK-MES-1 | 1.06 | 0.842 | 0.833 | 0.474 | 0.406 | 0.369 | 0.409 | 0.392 | 0.412 | 0.439 | 0.476 | 0.452 | 0.428 | 0.352 | 0.296 | 0.889 | 1 | 0.969 | 0.893 | 0.995
24 | SW 1573 | 0.94 | 0.784 | 0.682 | 0.322 | 0.33 | 0.517 | 0.63 | 0.569 | 0.476 | 0.501 | 1.13 | 1.08 | 1.04 | 0.458 | 0.367 | 0.807 | 0.806 | 1.53 | 0.756 | 0.79
